Laboratory results as given in patent publication US7939537B2, “HIV integrase inhibitors” (Istituto Di Ricerche Di Biologia Molecolare P. Angeletti …, priority 2006, dated 2011).

The compounds below were run on HIV (assay: Assay for inhibition of HIV replication (spread assay; acute HIV infection of T-lymphoid cells)). Conditions: Human immunodeficiency virus 1, tested up to 1 micromolar.
Format: cell-based
Protocol: Assay for Inhibition of HIV Replication
Assays for the inhibition of acute HIV infection of T-lymphoid cells were conducted in accordance with Vacca, J. P. et al., Proc. Natl. Acad. Sci. USA 1994, 91: 4096. […] The compounds of Examples 6, 8, 9, 14, 15, 21-23 and 29-35 were also tested in the spread assay up to 1 micromolar, but specific IC95 values were not obtained; i.e., the IC95 values for these compounds are greater than 1 micromolar.

SMILES	IC95 [nM]
Cc1cccn2c(=O)c(O)c(C(=O)NCc3ccc(F)cc3)nc12 [Example 29, N-(4-fluorobenzyl)-3-hydroxy-9-methyl-4-oxo-4H-pyrido[1,2-a]pyrimidine-2-carboxamide]	> 1000
O=C(NCc1ccc(F)cc1)c1nc2ccc(Br)cn2c(=O)c1O [Example 35, 7-bromo-N-(4-fluorobenzy1)-3-hydroxy-4-oxo-4H-pyrido[1,2-a]pyrimidine-2-carboxamide]	> 1000
CCN(C(=O)C(=O)N1CCOCC1)c1cccn2c(=O)c(O)c(C(=O)NCc3ccc(F)cc3)nc12 [Example 19, N-(4-fluorobenzyl)-3-hydroxy-9-{ethyl[morpholin-4-yl(oxo)acetyl]amino}-4-oxo-4H-pyrido[1,2-a]pyrimidine-2-carboxamide]	< 1000
O=C(NCc1ccc(F)cc1)c1nc2c(OCc3ccccc3)cccn2c(=O)c1O [Example 4, N-(4-fluorobenzyl)-3-hydroxy-9-(benzyloxy)-4-oxo-4H-pyrido[1,2-a]pyrimidine-2-carboxamide]	< 1000
CCN(C(=O)C(=O)N(C)C)c1cccn2c(=O)c(O)c(C(=O)NCc3ccc(F)cc3)nc12 [Example 12, N-(2-{[(4-fluorobenzyl)amino]carbonyl}-3-hydroxy-4-oxo-4H-pyrido[1,2-a]pyrimidin-9-yl)-N-ethyl-N′,N′-dimethylethanediamide]	< 1000
CCN(C(=O)C(=O)N1CCCC1)c1cccn2c(=O)c(O)c(C(=O)NCc3ccc(F)cc3)nc12 [Example 27, 9-{ethyl[oxo(pyrrolidin-1-yl)acetyl]amino}-N-(4-fluorobenzyl)-3-hydroxy-4-oxo-4H-pyrido[1,2-a]pyrimidine-2-carboxamide]	< 1000
CCN(C(=O)CN1CCOCC1)c1cccn2c(=O)c(O)c(C(=O)NCc3ccc(F)cc3)nc12 [Example 22, 9-[ethyl(morpholin-4-ylacetyl)amino]-N-(4-fluorobenzyl)-3-hydroxy-4-oxo-4H-pyrido[1,2-a]pyrimidine-2-carboxamide]	> 1000
CCN(C(=O)c1ccncc1)c1cccn2c(=O)c(O)c(C(=O)NCc3ccc(F)cc3)nc12 [Example 15, 9-[ethyl(isonicotinoyl)amino]-N-(4-fluorobenzyl)-3-hydroxy-4-oxo-4H-pyrido[1,2-a]pyrimidine-2-carboxamide]	> 1000
CON(C)Cc1cccn2c(=O)c(O)c(C(=O)NCc3ccc(F)cc3)nc12 [Example 31, N-(4-fluorobenzyl)-3-hydroxy-9-{[methoxy(methyl)amino]methyl}-4-oxo-4H-pyrido[1,2-a]pyrimidine-2-carboxamide]	> 1000
